Source: patent US20240025862A1, “SUBSTITUTED N-PHENYLURACILS AND SALTS THEREOF, AND USE THEREOF AS HERBICIDAL ACTIVE SUBSTANCES” (Bayer Aktiengesellschaft, priority 2020, published 2024)

Assays:
Type in all cases: in vivo
[1] = system: Abutilon theophrasti (ABUTH); assay: Post-emergence herbicidal action, greenhouse pot test; conditions: rated visually after about 3 weeks vs untreated controls, 100% = plants have died
Procedure, shortened: (§1)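 Activity was scored by eye about 3 weeks after treatment against untreated plants, where 100% means dead plants and 0% means no difference. Plants at the one-leaf stage received a foliar spray of WP or EC formulations in water plus 0.5% additive (600 l/ha, up to 20 g/ha). Plants were grown in sandy loam pots in a greenhouse for 2–3 weeks before spraying.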

[2] = system: Amaranthus retroflexus (AMARE); assay: as above; conditions: rated visually after about 3 weeks vs untreated controls, 100% = plants have died
Procedure, shortened: as §1

[3] = system: Pharbitis purpurea (PHBPU); assay: as above
Procedure, shortened: as §1

[4] = system: Polygonum convolvulus (POLCO); assay: as above
Procedure, shortened: as §1

[5] = system: Stellaria media (STEME); assay: as above
Procedure, shortened: as §1

[6] = system: Veronica persica (VERPE); assay: as above
Procedure, shortened: as §1

[7] = system: Viola tricolor (VIOTR); assay: as above
Procedure, shortened: as §1

[8] = system: Alopecurus myosuroides (ALOMY); assay: Post-emergence herbicidal action, greenhouse pot test (also comparative test C); conditions: 20 g/ha, rated visually after about 3 weeks vs untreated controls, 100% = plants have died
Procedure, shortened: (§2)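 Visual rating against untreated controls, about 3 weeks after spraying, from 0% (like control) to 100% (plants dead). Weeds were treated at the one-leaf stage, 2–3 weeks after sowing in sandy loam, with aqueous WP/EC spray containing 0.5% additive at 600 l/ha. Doses were ≤20 g/ha, or ≤5 g/ha for comparative test C.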

[9] = system: Echinochloa crus-galli (ECHCG); assay: as above
Procedure, shortened: as §2

[10] = system: Matricaria inodora (MATIN); assay: as above
Procedure, shortened: as §2

[11] = system: Setaria viridis (SETVI); assay: as above; conditions: for Post-emergence action against SETVI: 20 g/ha
Procedure, shortened: as §2

[12] = system: Brassica napus (BRSNW); assay: Post-emergence crop plant compatibility, greenhouse pot test; conditions: 1.25 g/ha, vs untreated controls
Procedure, shortened: (§3)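 Values are visual % damage versus untreated controls (100% = plants died) about 3 weeks after treatment. Plants in sandy loam were sprayed at the one-leaf stage, 2–3 weeks after sowing, with aqueous WP/EC preparations plus 0.5% additive at 600 l/ha; a/b/c mark different dose levels.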

[13] = system: Glycine max (GLXMA); assay: as above
Procedure, shortened: as §3

[14] = system: Triticum aestivum (TRZAS); assay: as above; conditions: vs untreated controls
Procedure, shortened: as §3

[15] = system: Oryza sativa (ORYSA); assay: Post-emergence crop plant compatibility, greenhouse pot test (also comparative test C); conditions: vs untreated controls
Procedure, shortened: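 Visual damage versus untreated plants (0% = like control, 100% = plants died) was scored about 3 weeks after a post-emergence spray in greenhouse pots. Treatment: one-leaf stage, WP or EC in water at 600 l/ha with 0.5% additive; a/b/c mark different dosages on the same crop.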

Structure (SMILES)	Post-emergence action at 5 g/ha against ABUTH in % [1] [%]	Post-emergence action at 20 g/ha against ABUTH in % [1] [%]	Post-emergence action at 1.25 g/ha against AMARE in % [2] [%]	Post-emergence action at 5 g/ha against AMARE in % [2] [%]	Post-emergence action at 20 g/ha against AMARE in % [2] [%]	Post-emergence action against PHBPU in % ([3]; dosage 1.25 g/ha) [%]	Post-emergence action against PHBPU in % ([3]; dosage 5 g/ha) [%]	Post-emergence action against PHBPU in % ([3]; dosage 20 g/ha) [%]	Post-emergence action against POLCO in % ([4]; dosage 5 g/ha) [%]	Post-emergence action against POLCO in % ([4]; dosage 20 g/ha) [%]	Post-emergence action against STEME ([5]; 5 g/ha) [%]	Post-emergence action against STEME ([5]; 20 g/ha) [%]	Post-emergence action against VERPE ([6]; 1.25 g/ha) [%]	Post-emergence action against VERPE ([6]; 5 g/ha) [%]	Post-emergence action against VERPE ([6]; 20 g/ha) [%]	Post-emergence action against VIOTR ([7]; 1.25 g/ha) [%]	Post-emergence action against VIOTR ([7]; 5 g/ha) [%]	Post-emergence action against VIOTR ([7]; 20 g/ha) [%]	Post-emergence action at 20 g/ha against ALOMY in % [8] [%]	Post-emergence action against ECHCG in % ([9]; dosage 20 g/ha) [%]	further results
CC(Oc1ccccc1Sc1cc(-n2c(=O)cc(C(F)(F)F)n(C)c2=O)c(F)cc1Cl)C(=O)OCC1CCCO1 (mixture of isomers) [I.2-71]	100	100	100	100	100	80	100	100	100	100	100	100	100	100	100	100	100	100	80	80	Post-emergence action against MATIN in % ([10]; dosage 5 g/ha): 80%; Post-emergence action against MATIN in % ([10]; dosage 20 g/ha): 90%; Post-emergence action against SETVI [11]: 100%; Post-emergence action against SETVI in % ([11]; dosage 1.25 g/ha): 90%; Post-emergence action against SETVI in % ([11]; dosage 5 g/ha): 100%; Post-emergence action against BRSNW (crop plant compatibility) [12]: 10%; Post-emergence action against GLXMA in % ([13]; 1.25 g/ha): 10%; Post-emergence action against TRZAS (crop plant compatibility) ([14]; 1.25 g/ha): 20%; Post-emergence action against TRZAS (crop plant compatibility) ([14]; 5 g/ha): 20%; Post-emergence action against ORYSA (crop plant compatibility) ([15]; 1.25 g/ha): 20%; Post-emergence action against ORYSA (crop plant compatibility) ([15]; 5 g/ha): 20%
CC(Oc1ccccc1Sc1cc(-n2c(=O)cc(C(F)(F)F)n(C)c2=O)c(F)cc1Cl)C(=O)OCC1CCOC1 (mixture of isomers) [I.2-72]	100	100	90	100	100	100	100	100	80	100	100	100	100	100	100	100	100	100	90	80	Post-emergence action against ECHCG in % ([9]; dosage 5 g/ha): 80%; Post-emergence action against MATIN in % ([10]; dosage 20 g/ha): 100%; Post-emergence action against SETVI [11]: 100%; Post-emergence action against SETVI in % ([11]; dosage 1.25 g/ha): 90%; Post-emergence action against SETVI in % ([11]; dosage 5 g/ha): 100%; Post-emergence action against BRSNW (crop plant compatibility) [12]: 10%; Post-emergence action against GLXMA in % ([13]; 1.25 g/ha): 0%; Post-emergence action against GLXMA in % ([13]; 5 g/ha): 10%; Post-emergence action against TRZAS (crop plant compatibility) ([14]; 1.25 g/ha): 20%; Post-emergence action against TRZAS (crop plant compatibility) ([14]; 5 g/ha): 20%; Post-emergence action against ORYSA (crop plant compatibility) ([15]; 1.25 g/ha): 0%; Post-emergence action against ORYSA (crop plant compatibility) ([15]; 5 g/ha): 20%
